Measurements from US9802941B2, “Compounds and methods for inhibiting histone demethylases” (Gilead Sciences, Inc., priority 2014, dated 2017).
Read-outs that look alike come from different tables or passages of the source.

Tests used:
Type in all cases: biochemical
KDM2B (FBXL10) = target: T1, KDM2B (FBXL10) (Homo sapiens, UniProt Q8NHM5); assay: Histone lysine demethylase AlphaLISA assay, KDM2B; details: AlphaLISA, in vitro; read-out: HDME Inhibition KDM2B
T1 construct: KDM2B; BPS,; 1-650; Bac; purchased BPS Bioscience, US; host or cells: baculovirus system
T1 sequence (Q8NHM5 1-650): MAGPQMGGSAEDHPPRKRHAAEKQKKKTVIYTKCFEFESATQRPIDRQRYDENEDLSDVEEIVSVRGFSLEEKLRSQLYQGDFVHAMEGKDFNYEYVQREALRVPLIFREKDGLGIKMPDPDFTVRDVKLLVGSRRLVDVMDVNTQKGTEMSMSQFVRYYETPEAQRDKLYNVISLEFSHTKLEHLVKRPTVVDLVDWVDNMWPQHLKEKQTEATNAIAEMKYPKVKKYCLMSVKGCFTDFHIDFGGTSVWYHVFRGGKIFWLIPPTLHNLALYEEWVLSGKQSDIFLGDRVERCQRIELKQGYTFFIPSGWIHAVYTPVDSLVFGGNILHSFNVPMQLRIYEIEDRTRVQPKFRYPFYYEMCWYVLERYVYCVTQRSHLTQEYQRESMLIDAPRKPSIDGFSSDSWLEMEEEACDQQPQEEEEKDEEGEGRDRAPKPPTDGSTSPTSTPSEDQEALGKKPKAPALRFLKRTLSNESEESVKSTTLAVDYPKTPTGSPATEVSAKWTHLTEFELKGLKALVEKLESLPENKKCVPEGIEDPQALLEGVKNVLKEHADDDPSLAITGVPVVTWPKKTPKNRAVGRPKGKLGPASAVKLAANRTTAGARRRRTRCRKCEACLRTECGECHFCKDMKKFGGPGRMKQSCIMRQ
Experimental: (§1) The compounds of the application, or a pharmaceutically acceptable salt, or solvate, or prodrug thereof, are tested in an in vitro AlphaLISA assay. Enzymes are dissolved in enzyme buffer and incubated before they are added to DMSO solutions of compounds of the application, or a pharmaceutically acceptable salt, or solvate, or prodrug thereof, in enzyme buffer. The reaction mixture is then incubated for an additional period of time before substrate solution is added and then the resulting mixture again incubated. Acceptor beads and suspended Epigenetic Buffer from stock are added and the suspension is again incubated before a suspension of streptavidin donor beads in Epigenetic Buffer is added. After an additional period of incubation, the plates are read.
(§2) The ability of compounds of the application to inhibit the histone lysine demethylase activity in vitro of different enzymes was determined.
(§3) The reaction mixture was incubated for another 10 minutes before 5 μL of substrate solution was added and the resulting mixture was then incubated at room temperature. […] After incubation at room temperature in the dark, the plates were read.
(§4) Enzyme Buffer: 50 mM Hepes (pH 7.4-8.0), 0.003-0.01% Tween-20, 0.1% BSA; 5 μM (NH4)2Fe(SO4)2.

KDM4C (JMJD2C) = target: T2, KDM4C (JMJD2C) (Homo sapiens, UniProt Q9H3R0); assay: Histone lysine demethylase AlphaLISA assay, KDM4C
T2 construct: KDM4C; BRIC, Denmark; 1-349; E. coli; host or cells: E. coli
T2 sequence (Q9H3R0 1-349): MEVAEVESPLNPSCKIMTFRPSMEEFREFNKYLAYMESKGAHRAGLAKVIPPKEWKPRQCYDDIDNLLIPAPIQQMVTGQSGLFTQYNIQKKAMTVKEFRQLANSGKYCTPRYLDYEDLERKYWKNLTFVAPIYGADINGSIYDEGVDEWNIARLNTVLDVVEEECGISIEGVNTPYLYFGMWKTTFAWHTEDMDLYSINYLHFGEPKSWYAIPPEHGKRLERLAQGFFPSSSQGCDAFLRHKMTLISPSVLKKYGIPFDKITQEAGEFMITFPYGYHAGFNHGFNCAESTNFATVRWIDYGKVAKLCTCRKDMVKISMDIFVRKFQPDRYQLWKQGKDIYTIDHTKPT
Experimental: as §1, §2, §3, §4

KDM5B (PLU-1) = target: T3, KDM5B (PLU-1) (Homo sapiens, UniProt Q9UGL1); assay: Histone lysine demethylase AlphaLISA assay, KDM5B
T3 construct: BRIC; 1-809; E. coli; host or cells: E. coli
T3 sequence (Q9UGL1 1-809): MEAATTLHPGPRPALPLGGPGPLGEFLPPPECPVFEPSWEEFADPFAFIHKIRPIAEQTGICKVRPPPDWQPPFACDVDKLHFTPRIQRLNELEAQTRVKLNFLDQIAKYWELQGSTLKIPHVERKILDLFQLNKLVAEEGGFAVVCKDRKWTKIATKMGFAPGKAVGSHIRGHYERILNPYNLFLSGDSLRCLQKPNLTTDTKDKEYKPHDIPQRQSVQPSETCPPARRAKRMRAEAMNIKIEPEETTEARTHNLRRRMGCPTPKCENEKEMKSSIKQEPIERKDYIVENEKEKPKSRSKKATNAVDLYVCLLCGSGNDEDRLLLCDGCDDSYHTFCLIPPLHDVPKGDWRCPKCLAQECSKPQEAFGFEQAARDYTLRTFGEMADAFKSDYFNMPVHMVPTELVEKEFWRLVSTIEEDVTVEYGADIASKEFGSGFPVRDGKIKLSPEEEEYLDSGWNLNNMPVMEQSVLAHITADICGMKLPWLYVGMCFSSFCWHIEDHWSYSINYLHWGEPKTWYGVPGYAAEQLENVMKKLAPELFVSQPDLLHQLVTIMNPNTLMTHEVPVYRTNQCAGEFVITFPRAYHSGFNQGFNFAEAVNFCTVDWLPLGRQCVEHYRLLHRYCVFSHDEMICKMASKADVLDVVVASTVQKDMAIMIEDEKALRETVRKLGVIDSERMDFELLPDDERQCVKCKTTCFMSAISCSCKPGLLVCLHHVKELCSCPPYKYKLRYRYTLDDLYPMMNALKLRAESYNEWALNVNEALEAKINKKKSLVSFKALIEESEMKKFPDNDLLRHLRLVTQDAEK
Experimental: as §1, §2, §3, §4

PHF8 (KDM7) = target: T4, PHF8 (KDM7) (Homo sapiens, UniProt Q9UPP1); assay: Histone lysine demethylase AlphaLISA assay, PHF8
T4 construct: KDM7 (PHF8); BRIC; 1-1322; Bac
Experimental: as §1, §2, §3, §4

[1] = AlphaLISA assay, read-out: HDME Inhibition KDM4C (IC50)
[2] = AlphaLISA, in vitro, read-out: HDME Inhibition KDM4C
[3] = AlphaLISA assay, read-out: HDME Inhibition KDM5B (IC50)
[4] = AlphaLISA, in vitro, read-out: HDME Inhibition KDM5B
[5] = AlphaLISA, in vitro, read-out: HDME Inhibition PHF8

T4 sequence (Q9UPP1 37-440 limits assumed): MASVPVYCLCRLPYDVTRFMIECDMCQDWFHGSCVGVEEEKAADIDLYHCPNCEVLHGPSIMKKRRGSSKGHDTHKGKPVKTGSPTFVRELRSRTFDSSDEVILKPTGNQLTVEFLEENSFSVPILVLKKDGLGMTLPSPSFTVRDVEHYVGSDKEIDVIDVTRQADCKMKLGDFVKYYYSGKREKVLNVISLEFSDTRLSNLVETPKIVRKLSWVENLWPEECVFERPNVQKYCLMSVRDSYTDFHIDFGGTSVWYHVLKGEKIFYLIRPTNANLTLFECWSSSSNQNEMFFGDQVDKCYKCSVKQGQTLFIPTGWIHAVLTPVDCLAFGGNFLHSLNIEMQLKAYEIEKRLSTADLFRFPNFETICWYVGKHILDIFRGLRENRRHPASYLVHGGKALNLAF

SMILES | IC50 (KDM2B (FBXL10)) | IC50 (KDM4C (JMJD2C); [1]) | IC50 (KDM4C (JMJD2C); [2]) | IC50 (KDM5B (PLU-1); [3]) | IC50 (KDM5B (PLU-1); [4]) | IC50 (PHF8 (KDM7); [5]) | IC50 (KDM5B (PLU-1)) | IC50 (PHF8 (KDM7); AlphaLISA assay, read-out: HDME Inhibition PHF8 (IC50))
CSc1cnc(CNCc2cc(C(=O)O)cc(C)n2)n1Cc1ccc(F)cc1 [Compound 43, 2-{[({1-[(4-fluorophenyl)methyl]-5-(methylsulfanyl)-1H-imidazol-2-yl}methyl)amino]methyl}-6-methyl pyridine-4-carboxylic acid] | 442 nM | > 10 µM | > 10 µM | > 10 µM | > 10 µM | 869 nM |  | 
Cc1nnc(CNCc2cc(C(=O)O)cc(CO)n2)n1CCCc1ccccc1 [Compound 65, 2-(hydroxymethyl)-6-[({[5-methyl-4-(3-phenylpropyl)-4H-1,2,4-triazol-3-yl]methyl}amino)methyl]pyridine-4-carboxylic acid] | 34 nM | > 10 µM | > 10 µM |  |  | 1010 nM | 0.151 µM | 
CCc1cnc(CNCc2cc(C(=O)O)cc(C)n2)n1CCc1ccccc1 [Compound 54, 2-[({[5-ethyl-1-(2-phenylethyl)-1H-imidazol-2-yl]methyl}amino)methyl]-6-methylpyridine-4-carboxylic acid] | 1140 nM | > 10 µM | > 10 µM | > 10 µM | > 10 µM | 1190 nM |  | 
Cc1cc(C(=O)O)cc(CNCc2nncn2CCc2cc(Cl)cc(Cl)c2)n1 [Compound 51, 2-{[({4-[2-(3,5-dichlorophenyl)ethyl]-4H-1,2,4-triazol-3-yl}methyl)amino]methyl}-6-methylpyridine-4-carboxylic acid] | 2830 nM | > 10 µM | > 10 µM | > 10 µM | > 10 µM | 3880 nM |  | 
Cc1cc(C(=O)O)cc(CNCc2nccn2CCc2ccccc2)n1 [Compound 61, 2-methyl-6-[({[1-(2-phenylethyl)-1H-imidazol-2-yl]methyl}amino)methyl]pyridine-4-carboxylic acid] | 4180 nM | > 10 µM | > 10 µM | > 10 µM | > 10 µM | 2550 nM |  | 
Cc1ccc(OCCC(C)C)c(CCNCc2cc(C(=O)O)cc(C)n2)c1 [Compound 89, 2-methyl-6-[({2-[5-methyl-2-(3-methylbutoxy)phenyl]ethyl}amino)methyl]pyridine-4-carboxylic acid] | 2300 nM | > 10 µM | > 10 µM | > 10 µM | > 10 µM | > 10000 nM |  | > 10000 nM

The next lines start with results.

IC50 (KDM2B (FBXL10)) | IC50 (KDM4C (JMJD2C); [1]) | IC50 (KDM4C (JMJD2C); [2]) | IC50 (KDM5B (PLU-1); [3]) | IC50 (KDM5B (PLU-1); [4]) | IC50 (PHF8 (KDM7); [5]) | IC50 (KDM5B (PLU-1)) | SMILES | IC50 (PHF8 (KDM7); AlphaLISA assay, read-out: HDME Inhibition PHF8 (IC50))
1680 nM | > 10 µM | > 10 µM | > 10 µM | > 10 µM | 1800 nM |  | CCc1nnc(CNCc2cc(C(=O)O)cc(C)n2)n1C/C=C/c1ccccc1 [Compound 68, 2-{[({5-ethyl-4-[(2E)-3-phenylprop-2-en-1-yl]-4H-1,2,4-triazol-3-yl}methyl)amino]methyl}-6-methylpyridine-4-carboxylic acid] | 
683 nM | > 10 µM | > 10 µM |  |  | 5300 nM | 1.99 µM | Cc1cc(C(=O)O)cc(CNCc2nccn2CC(C)C)n1 [Compound 80, 2-methyl-6-[({[1-(2-methylpropyl)-1H-imidazol-2-yl]methyl}amino)methyl]pyridine-4-carboxylic acid] | 
375 nM | > 10 µM | > 10 µM | > 10 µM | > 10 µM | 3520 nM |  | CC#CCc1cnc(CNCc2cc(C(=O)O)cc(C)n2)n1Cc1ccc(F)cc1 [Compound 112, 2-[({[5-(but-2-yn-1-yl)-1-[(4-fluorophenyl)methyl]-1H-imidazol-2-yl]methyl}amino)methyl]-6-methylpyridine-4-carboxylic acid] | 
283 nM | > 10 µM | > 10 µM | > 10 µM | > 10 µM | 529 nM |  | Cc1nnc(CNCc2cc(C(=O)O)cc(CO)n2)n1Cc1ccc(F)cc1 [Compound 72, 2-{[({4-[(4-fluorophenyl)methyl]-5-methyl-4H-1,2,4-triazol-3-yl}methyl)amino]methyl}-6-(hydroxymethyl)pyridine-4-carboxylic acid] | 
53 nM | > 10 µM | > 10 µM | > 10 µM | > 10 µM | 1230 nM |  | COc1ccc(OCc2ccccc2)c(CNCc2cc(C(=O)O)cc(C)n2)n1 [Compound 92, 2-[({[3-(benzyloxy)-6-methoxypyridin-2-yl]methyl}amino)methyl]-6-methylpyridine-4-carboxylic acid] | 
2940 nM | > 10 µM | > 10 µM | > 10 µM | > 10 µM | 6970 nM |  | CCc1nnc(CNCc2cc(C(=O)O)cc(C)n2)n1CCCc1ccccc1 [Compound 90, 2-[({[5-ethyl-4-(3-phenylpropyl)-4H-1,2,4-triazol-3-yl]methyl}amino)methyl]-6-methylpyridine-4-carboxylic acid] | 
252 nM | > 10 µM | > 10 µM | > 10 µM | > 10 µM | 1650 nM |  | CCCc1nnc(CNCc2cc(C(=O)O)cc(CO)n2)n1Cc1ccc(F)cc1 [Compound 73, 2-{[({4-[(4-fluorophenyl)methyl]-5-propyl-4H-1,2,4-triazol-3-yl}methyl)amino]methyl}-6-(hydroxymethyl)pyridine-4-carboxylic acid] | 
133 nM | > 10 µM | > 10 µM | > 10 µM | > 10 µM | 861 nM |  | CCc1cnc(CNCc2cc(C(=O)O)cc(C)n2)n1CCCc1ccccc1 [Compound 108, 2-[({[5-ethyl-1-(3-phenylpropyl)-1H-imidazol-2-yl]methyl}amino)methyl]-6-methylpyridine-4-carboxylic acid] | 
